Measurements reported in the kinase profiling compilation of Christmann-Franck et al. (2016).

Key:
Assay in all cases: KINOMEscan competition binding
Conditions in all cases: compound 10.0 µM
[1] = target: IRAK3 (human) (UniProt Q9Y616)
[2] = target: PKN1 (human) (UniProt Q16512)
[3] = target: SBK1 (human) (UniProt Q52WX2)
[4] = target: CAMK2B (human) (UniProt Q13554)
[5] = target: MAPK15 (human) (UniProt Q8TD08)
[6] = target: ADCK4 (human) (UniProt Q96D53)
[7] = target: NEK7 (human) (UniProt Q8TDX7)
[8] = target: CSNK1G3 (human) (UniProt Q9Y6M4)
[9] = target: NEK6 (human) (UniProt Q9HC98)
[10] = target: STK32C (human) (UniProt Q86UX6)
Chain of STK32C (human) (Q86UX6 whole entry, looked up): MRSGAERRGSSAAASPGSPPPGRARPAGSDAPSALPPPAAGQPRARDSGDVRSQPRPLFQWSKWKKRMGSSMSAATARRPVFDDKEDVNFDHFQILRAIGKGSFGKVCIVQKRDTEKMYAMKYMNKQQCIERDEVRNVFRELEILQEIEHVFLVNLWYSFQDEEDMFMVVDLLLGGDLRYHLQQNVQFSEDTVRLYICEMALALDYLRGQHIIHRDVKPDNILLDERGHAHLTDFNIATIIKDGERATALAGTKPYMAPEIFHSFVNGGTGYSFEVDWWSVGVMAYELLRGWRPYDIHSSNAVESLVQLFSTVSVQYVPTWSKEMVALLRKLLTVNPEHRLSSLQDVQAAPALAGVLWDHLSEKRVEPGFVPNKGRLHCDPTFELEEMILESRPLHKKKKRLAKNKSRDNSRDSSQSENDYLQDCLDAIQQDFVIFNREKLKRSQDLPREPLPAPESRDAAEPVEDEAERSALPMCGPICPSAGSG

[11] = target: PRKD3 (human) (UniProt O94806)
[12] = target: STK33 (human) (UniProt Q9BYT3)
Chain of STK33 (human) (Q9BYT3 whole entry, looked up): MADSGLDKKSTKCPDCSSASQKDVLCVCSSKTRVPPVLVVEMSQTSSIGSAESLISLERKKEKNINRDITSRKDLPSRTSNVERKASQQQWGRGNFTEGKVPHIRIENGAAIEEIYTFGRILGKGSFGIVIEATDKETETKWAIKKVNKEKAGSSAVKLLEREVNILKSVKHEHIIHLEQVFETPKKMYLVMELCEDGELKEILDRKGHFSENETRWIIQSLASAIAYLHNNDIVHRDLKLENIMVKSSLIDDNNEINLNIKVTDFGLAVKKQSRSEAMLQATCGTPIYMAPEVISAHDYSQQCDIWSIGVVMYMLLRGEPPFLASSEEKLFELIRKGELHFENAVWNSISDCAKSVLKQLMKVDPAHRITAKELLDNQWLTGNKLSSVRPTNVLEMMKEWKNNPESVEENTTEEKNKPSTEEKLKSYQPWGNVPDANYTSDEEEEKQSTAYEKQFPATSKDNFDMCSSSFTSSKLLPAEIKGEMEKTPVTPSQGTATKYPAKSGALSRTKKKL

[13] = target: OXSR1 (human) (UniProt O95747)
[14] = target: CDK9 (human) (UniProt P50750)
[15] = system: KIT (human), P10721 [L576P]
[16] = system: CPK1 (P.falciparum)
[17] = target: MAP3K5 (human) (UniProt Q99683)
Chain of MAP3K5 (human) (Q99683 whole entry, looked up): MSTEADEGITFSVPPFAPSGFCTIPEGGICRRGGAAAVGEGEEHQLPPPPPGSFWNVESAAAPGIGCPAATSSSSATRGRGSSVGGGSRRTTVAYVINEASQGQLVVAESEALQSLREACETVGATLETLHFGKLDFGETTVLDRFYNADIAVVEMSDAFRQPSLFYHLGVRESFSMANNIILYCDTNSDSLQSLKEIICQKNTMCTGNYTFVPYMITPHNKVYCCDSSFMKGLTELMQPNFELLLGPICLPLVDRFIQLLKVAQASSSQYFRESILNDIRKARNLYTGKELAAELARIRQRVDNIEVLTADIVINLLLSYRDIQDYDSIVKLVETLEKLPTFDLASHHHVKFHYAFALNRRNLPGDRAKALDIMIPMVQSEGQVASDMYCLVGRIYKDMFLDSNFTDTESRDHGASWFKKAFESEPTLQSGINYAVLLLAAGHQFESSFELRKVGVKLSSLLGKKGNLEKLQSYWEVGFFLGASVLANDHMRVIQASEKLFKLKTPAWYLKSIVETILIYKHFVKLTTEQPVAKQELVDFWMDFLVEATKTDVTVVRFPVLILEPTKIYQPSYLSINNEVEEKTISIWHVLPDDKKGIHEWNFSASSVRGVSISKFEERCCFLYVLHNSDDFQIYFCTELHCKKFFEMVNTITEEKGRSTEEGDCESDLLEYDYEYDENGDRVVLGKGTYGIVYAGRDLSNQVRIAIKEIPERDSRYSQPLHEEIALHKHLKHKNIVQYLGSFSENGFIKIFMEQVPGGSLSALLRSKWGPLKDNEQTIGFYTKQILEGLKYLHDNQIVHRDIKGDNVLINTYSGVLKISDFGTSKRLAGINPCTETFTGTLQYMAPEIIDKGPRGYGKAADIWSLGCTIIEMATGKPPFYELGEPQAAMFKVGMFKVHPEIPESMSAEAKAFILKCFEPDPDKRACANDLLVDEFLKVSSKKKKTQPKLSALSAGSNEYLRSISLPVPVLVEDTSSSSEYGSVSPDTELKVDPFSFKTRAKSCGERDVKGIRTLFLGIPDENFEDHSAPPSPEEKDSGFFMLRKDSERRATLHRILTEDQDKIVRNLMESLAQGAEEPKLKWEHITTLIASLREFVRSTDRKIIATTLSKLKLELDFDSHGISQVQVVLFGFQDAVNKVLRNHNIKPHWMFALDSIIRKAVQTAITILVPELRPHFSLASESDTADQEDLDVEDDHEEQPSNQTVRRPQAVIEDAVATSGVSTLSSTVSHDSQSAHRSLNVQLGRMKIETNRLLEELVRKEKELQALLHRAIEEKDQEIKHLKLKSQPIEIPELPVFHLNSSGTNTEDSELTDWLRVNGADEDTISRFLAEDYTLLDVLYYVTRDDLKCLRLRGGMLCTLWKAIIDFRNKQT

[18] = target: EPHA6 (human) (UniProt Q9UF33)
[19] = target: PRKAA2 (human) (UniProt P54646)
Chain of PRKAA2 (human) (P54646 whole entry, looked up): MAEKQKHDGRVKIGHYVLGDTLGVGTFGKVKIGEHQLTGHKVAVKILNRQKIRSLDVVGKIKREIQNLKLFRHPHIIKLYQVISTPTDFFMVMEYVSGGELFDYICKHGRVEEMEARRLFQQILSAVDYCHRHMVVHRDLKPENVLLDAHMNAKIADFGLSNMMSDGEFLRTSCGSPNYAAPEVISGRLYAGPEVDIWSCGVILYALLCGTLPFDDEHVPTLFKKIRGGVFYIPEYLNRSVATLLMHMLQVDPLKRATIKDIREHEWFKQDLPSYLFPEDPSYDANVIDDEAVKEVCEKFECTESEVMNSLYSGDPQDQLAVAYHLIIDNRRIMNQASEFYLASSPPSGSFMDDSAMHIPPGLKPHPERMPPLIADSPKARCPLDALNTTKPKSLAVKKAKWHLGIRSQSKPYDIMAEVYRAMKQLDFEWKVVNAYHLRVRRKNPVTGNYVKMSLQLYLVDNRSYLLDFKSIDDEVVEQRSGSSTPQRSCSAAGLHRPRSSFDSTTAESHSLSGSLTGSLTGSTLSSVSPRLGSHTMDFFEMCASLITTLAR

[20] = target: CHUK (human) (UniProt O15111)
[21] = target: HIPK2 (human) (UniProt Q9H2X6)
Chain of HIPK2 (human) (Q9H2X6 whole entry, looked up): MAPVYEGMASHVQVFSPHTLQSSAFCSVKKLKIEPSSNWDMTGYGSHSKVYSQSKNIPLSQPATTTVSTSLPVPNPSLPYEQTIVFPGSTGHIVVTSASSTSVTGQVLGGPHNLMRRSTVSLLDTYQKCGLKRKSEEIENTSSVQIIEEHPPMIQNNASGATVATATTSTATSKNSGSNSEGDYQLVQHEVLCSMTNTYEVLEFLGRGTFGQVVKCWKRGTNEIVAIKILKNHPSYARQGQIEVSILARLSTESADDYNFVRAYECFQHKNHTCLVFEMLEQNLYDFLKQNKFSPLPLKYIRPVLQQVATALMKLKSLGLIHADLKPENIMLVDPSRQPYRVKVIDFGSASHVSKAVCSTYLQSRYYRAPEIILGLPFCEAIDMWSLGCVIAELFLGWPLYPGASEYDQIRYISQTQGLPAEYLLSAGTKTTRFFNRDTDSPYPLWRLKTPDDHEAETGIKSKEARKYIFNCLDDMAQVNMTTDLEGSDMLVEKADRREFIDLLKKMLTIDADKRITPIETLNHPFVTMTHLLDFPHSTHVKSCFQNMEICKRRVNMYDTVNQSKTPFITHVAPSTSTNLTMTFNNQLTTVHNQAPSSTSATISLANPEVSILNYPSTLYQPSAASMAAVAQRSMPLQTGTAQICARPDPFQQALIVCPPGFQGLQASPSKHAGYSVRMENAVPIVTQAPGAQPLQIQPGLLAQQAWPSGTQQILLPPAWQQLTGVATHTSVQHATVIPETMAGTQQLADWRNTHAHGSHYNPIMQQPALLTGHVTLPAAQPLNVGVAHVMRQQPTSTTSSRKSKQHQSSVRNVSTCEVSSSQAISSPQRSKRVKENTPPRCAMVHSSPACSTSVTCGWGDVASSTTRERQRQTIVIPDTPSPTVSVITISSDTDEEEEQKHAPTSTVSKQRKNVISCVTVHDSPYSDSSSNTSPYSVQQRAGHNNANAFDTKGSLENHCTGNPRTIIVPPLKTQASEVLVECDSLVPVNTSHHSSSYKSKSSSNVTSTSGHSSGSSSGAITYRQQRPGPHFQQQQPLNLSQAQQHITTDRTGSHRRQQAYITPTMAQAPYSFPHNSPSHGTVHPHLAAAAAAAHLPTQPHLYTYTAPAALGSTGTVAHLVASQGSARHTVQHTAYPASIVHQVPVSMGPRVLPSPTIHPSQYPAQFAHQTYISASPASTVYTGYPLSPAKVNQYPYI

[22] = target: MAPK9 (human) (UniProt P45984)
[23] = target: IRAK4 (human) (UniProt Q9NWZ3)
[24] = target: TEC (human) (UniProt P42680)
[25] = target: ACVRL1 (human) (UniProt P37023)
[26] = target: PLK1 (human) (UniProt P53350)
[27] = system: RET (human), P07949 [V804M]
[28] = system: EGFR (human), P00533 [752-759 del]
[29] = target: MAP3K2 (human) (UniProt Q9Y2U5)
[30] = target: PRKCH (human) (UniProt P24723)
[31] = target: CHEK1 (human) (UniProt O14757)
[32] = target: CSNK1G2 (human) (UniProt P78368)
[33] = target: TYRO3 (human) (UniProt Q06418)
[34] = target: TGFBR2 (human) (UniProt P37173)
[35] = target: NEK5 (human) (UniProt Q6P3R8)
[36] = target: BRAF (human) (UniProt P15056)
[37] = target: DYRK1A (human) (UniProt Q13627)
[38] = target: DCLK1 (human) (UniProt O15075)
[39] = target: PRKACB (human) (UniProt P22694)
[40] = target: MAP2K4 (human) (UniProt P45985)

Chain of PKN1 (human) (Q16512 whole entry, looked up): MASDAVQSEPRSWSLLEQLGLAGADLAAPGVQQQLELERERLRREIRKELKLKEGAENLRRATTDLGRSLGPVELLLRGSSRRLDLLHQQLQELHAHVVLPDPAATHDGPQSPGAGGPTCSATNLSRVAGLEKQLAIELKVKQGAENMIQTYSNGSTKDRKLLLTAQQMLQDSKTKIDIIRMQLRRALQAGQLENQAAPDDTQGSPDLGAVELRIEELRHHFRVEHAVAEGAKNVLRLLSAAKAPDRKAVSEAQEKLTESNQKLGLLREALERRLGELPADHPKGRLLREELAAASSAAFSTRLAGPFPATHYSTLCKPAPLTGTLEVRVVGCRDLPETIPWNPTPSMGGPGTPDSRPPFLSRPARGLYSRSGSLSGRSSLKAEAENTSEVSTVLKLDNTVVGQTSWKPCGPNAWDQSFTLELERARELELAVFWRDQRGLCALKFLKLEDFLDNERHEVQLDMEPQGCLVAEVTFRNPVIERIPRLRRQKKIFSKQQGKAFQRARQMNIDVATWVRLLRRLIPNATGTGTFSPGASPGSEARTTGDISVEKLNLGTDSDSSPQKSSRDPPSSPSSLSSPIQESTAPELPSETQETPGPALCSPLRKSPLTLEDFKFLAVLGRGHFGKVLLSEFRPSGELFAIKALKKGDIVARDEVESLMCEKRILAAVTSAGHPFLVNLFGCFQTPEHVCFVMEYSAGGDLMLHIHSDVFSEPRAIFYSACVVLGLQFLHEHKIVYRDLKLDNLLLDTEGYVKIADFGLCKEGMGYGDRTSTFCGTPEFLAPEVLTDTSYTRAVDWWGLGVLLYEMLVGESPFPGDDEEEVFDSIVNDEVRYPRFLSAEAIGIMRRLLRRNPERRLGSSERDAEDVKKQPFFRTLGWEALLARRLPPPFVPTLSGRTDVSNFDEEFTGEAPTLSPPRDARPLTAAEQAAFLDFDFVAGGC

Compound `COc1ccc(N(C(=O)Oc2c(C)cccc2C)c2ccnc(Nc3ccc(N4CCN(C)CC4)cc3)n2)c(OC)c1` has a kinase still bound, per cent of control [1] of 19%, a kinase still bound, per cent of control [2] of 15% and a kinase still bound, per cent of control [3] of 100%. For the same compound, the kinase still bound, per cent of control [4] was 98%, the kinase still bound, per cent of control [5] was 76% and the kinase still bound, per cent of control [6] was 20%. For the same compound, the kinase still bound, per cent of control [7] was 80%, the kinase still bound, per cent of control [8] was 87% and the kinase still bound, per cent of control [9] was 96%. The kinase still bound, per cent of control [10] was 19%, the kinase still bound, per cent of control [11] was 11% and the kinase still bound, per cent of control [12] was 28%. For the same compound, the kinase still bound, per cent of control [13] was 93%, the kinase still bound, per cent of control [14] was 33% and the kinase still bound, per cent of control [15] was 1%. It also gave a kinase still bound, per cent of control [16] of 5%, a kinase still bound, per cent of control [17] of 100% and a kinase still bound, per cent of control [18] of 0%. The kinase still bound, per cent of control [19] was 7.9%, the kinase still bound, per cent of control [20] was 92% and the kinase still bound, per cent of control [21] was 100%. It also gave a kinase still bound, per cent of control [22] of 2.6%, a kinase still bound, per cent of control [23] of 100% and a kinase still bound, per cent of control [24] of 3.7%. The kinase still bound, per cent of control [25] was 2.7%, the kinase still bound, per cent of control [26] was 100% and the kinase still bound, per cent of control [27] was 66%. The kinase still bound, per cent of control [28] was 1%, the kinase still bound, per cent of control [29] was 2.2% and the kinase still bound, per cent of control [30] was 35%. It also gave a kinase still bound, per cent of control [31] of 100%, a kinase still bound, per cent of control [32] of 33% and a kinase still bound, per cent of control [33] of 18%. For the same compound, the kinase still bound, per cent of control [34] was 16%, the kinase still bound, per cent of control [35] was 85% and the kinase still bound, per cent of control [36] was 88%. It also gave a kinase still bound, per cent of control [37] of 75%, a kinase still bound, per cent of control [38] of 84% and a kinase still bound, per cent of control [39] of 2.5%. For the same compound, the kinase still bound, per cent of control [40] was 100%.

Compound `COc1cc2ncn(-c3cc(OCc4ccccc4C(F)(F)F)c(C(N)=O)s3)c2cc1OC` has a kinase still bound, per cent of control [1] of 67%, a kinase still bound, per cent of control [2] of 76% and a kinase still bound, per cent of control [3] of 96%. The kinase still bound, per cent of control [4] was 75%, the kinase still bound, per cent of control [5] was 46% and the kinase still bound, per cent of control [6] was 71%. For the same compound, the kinase still bound, per cent of control [7] was 74%, the kinase still bound, per cent of control [8] was 100% and the kinase still bound, per cent of control [9] was 87%. For the same compound, the kinase still bound, per cent of control [10] was 100%, the kinase still bound, per cent of control [11] was 100% and the kinase still bound, per cent of control [12] was 67%. It also gave a kinase still bound, per cent of control [13] of 100%, a kinase still bound, per cent of control [14] of 100% and a kinase still bound, per cent of control [15] of 30%. For the same compound, the kinase still bound, per cent of control [16] was 75%, the kinase still bound, per cent of control [17] was 87% and the kinase still bound, per cent of control [18] was 59%. For the same compound, the kinase still bound, per cent of control [19] was 92%, the kinase still bound, per cent of control [20] was 86% and the kinase still bound, per cent of control [21] was 89%. The kinase still bound, per cent of control [22] was 78%, the kinase still bound, per cent of control [23] was 58% and the kinase still bound, per cent of control [24] was 94%. It also gave a kinase still bound, per cent of control [25] of 100%, a kinase still bound, per cent of control [26] of 0.1% and a kinase still bound, per cent of control [27] of 62%. For the same compound, the kinase still bound, per cent of control [28] was 100%, the kinase still bound, per cent of control [29] was 100% and the kinase still bound, per cent of control [30] was 100%. For the same compound, the kinase still bound, per cent of control [31] was 100%, the kinase still bound, per cent of control [32] was 100% and the kinase still bound, per cent of control [33] was 72%. The kinase still bound, per cent of control [34] was 100%, the kinase still bound, per cent of control [35] was 36% and the kinase still bound, per cent of control [36] was 100%. The kinase still bound, per cent of control [37] was 75%, the kinase still bound, per cent of control [38] was 49% and the kinase still bound, per cent of control [39] was 100%. The kinase still bound, per cent of control [40] was 100%.
